Measurements as given in patent publication US20170334899A1, “AMINO-SUBSTITUTED ISOTHIAZOLES” (Bayer Pharma Aktiengesellschaft, priority 2014, published 2017).
Where “and” joins values, the source holds several entries; their conditions need not be identical. Equal entries are not always repeated.

Key:
CDK2/CycE = biological target: T1, CDK2/CycE (Homo sapiens, UniProt P24941); assay: CDK2/CycE kinase assay (TR-FRET); type: biochemical; settings: avg, read-out: CDK2 avg (IC50 [mol/l])
T1 construct: GST; purchased ProQinase GmbH (Freiburg, Germany); host or cells: insect cells (Sf9)
Text: CDK2/CycE -inhibitory activity of compounds of the present invention was quantified employing the CDK2/CycE TR-FRET assay as described in the following paragraphs.
Recombinant fusion proteins of GST and human CDK2 and of GST and human CycE, expressed in insect cells (Sf9) and purified by Glutathion-Sepharose affinity chromatography, were purchased from ProQinase GmbH (Freiburg, Germany). As substrate for the kinase reaction biotinylated peptide biotin-Ttds-YISPLKSPYKISEG (C-terminus in amid form) was used which can be purchased e.g. form the company JERINI peptide technologies (Berlin, Germany).
For the assay 50 nl of a 100fold concentrated solution of the test compound in DMSO was pipetted into a black low volume 384we11 microtiter plate (Greiner Bio-One, Frickenhausen, Germany), 2 μl of a solution of CDK2/CycE in aqueous assay buffer [50 mM Tris/HCl pH 8.0, 10 mM MgCl2, 1.0 mM dithiothreitol, 0.1 mM sodium ortho-vanadate, 0.01% (v/v) Nonidet-P40 (Sigma)] were added and the mixture was incubated for 15 min at 22° C. to allow pre-binding of the test compounds to the enzyme before the start of the kinase reaction. Then the kinase reaction was started by the addition of 3 μl of a solution of adenosine-tri-phosphate (ATP, 16.7 μM=>final conc. in the 5 μl assay volume is 10 μM) and substrate (1.25 μM=>final conc. in the 5 μl assay volume is 0.75 μM) in assay buffer and the resulting mixture was incubated for a reaction time of 25 min at 22° C. The concentration of CDK2/CycE was adjusted depending of the activity of the enzyme lot and was chosen appropriate to have the assay in the linear range, typical concentrations were in the range of 130 ng/ml. The reaction was stopped by the addition of 5 μl of a solution of TR-FRET detection reagents (0.2 μM streptavidine-XL665 [Cisbio Bioassays, Codolet, France] and 1 nM anti-RB(pSer807/pSer811)-antibody from BD Pharmingen [#558389] and 1.2 nM LANCE EU-W1024 labeled anti-mouse IgG antibody [Perkin-Elmer, product no. AD0077, as an alternative a Terbium-cryptate-labeled anti-mouse IgG antibody from Cisbio Bioassays can be used]) in an aqueous EDTA-solution (100 mM EDTA, 0.2% (w/v) bovine serum albumin in 100 mM HEPES/NaOH pH 7.0).
(§1) The resulting mixture was incubated 1 h at 22° C. to allow the formation of complex between the phosphorylated biotinylated peptide and the detection reagents. Subsequently the amount of phosphorylated substrate was evaluated by measurement of the resonance energy transfer from the Eu-chelate to the streptavidine-XL. Therefore, the fluorescence emissions at 620 nm and 665 nm after excitation at 350 nm was measured in a TR-FRET reader, e.g. a Rubystar (BMG Labtechnologies, Offenburg, Germany) or a Viewlux (Perkin-Elmer). The ratio of the emissions at 665 nm and at […] was taken as the measure for the amount of phosphorylated substrate. The data were normalised (enzyme reaction without inhibitor=0% inhibition, all other assay components but no enzyme=100% inhibition).

[1] = biological target: T2, catalytic domain of human Bub1 (amino acids 704-1085) (Homo sapiens, UniProt O43683); assay: Bub1 kinase assay (TR-FRET); type: biochemical; settings: 10 μM ATP, avg, read-out: Bub1 avg (IC50 [mol/l])
T2 construct: catalytic domain of human Bub1 (amino acids 704-1085); His6 (N); made in house; host or cells: insect cells (Hi5)
T2 sequence (O43683 704-1085): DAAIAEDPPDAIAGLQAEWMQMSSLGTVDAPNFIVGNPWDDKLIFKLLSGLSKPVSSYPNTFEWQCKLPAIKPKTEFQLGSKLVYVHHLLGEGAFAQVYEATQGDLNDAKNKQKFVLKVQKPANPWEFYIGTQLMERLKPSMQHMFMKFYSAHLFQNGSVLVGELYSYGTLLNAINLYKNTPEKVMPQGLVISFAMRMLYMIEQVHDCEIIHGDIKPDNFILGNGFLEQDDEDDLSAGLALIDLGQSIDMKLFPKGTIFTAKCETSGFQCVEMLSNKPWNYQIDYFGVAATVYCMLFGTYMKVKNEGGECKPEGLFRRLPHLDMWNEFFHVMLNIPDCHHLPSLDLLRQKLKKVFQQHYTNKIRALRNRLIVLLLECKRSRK
Text: Bub1-inhibitory activity of compounds of the present invention was quantified employing the Bub1 TR-FRET assay as described in the following paragraphs.
N-terminally His6-tagged recombinant catalytic domain of human Bub1 (amino acids 704-1085), expressed in insect cells (Hi5) and purified by Ni-NTA affinity chromatography and subsequent size exclusion chromatography, was used as enzyme. As substrate for the kinase reaction the biotinylated peptide biotin-Ahx-VLLPKKSFAEPG (C-terminus in amid form) was used which can be purchased e.g. form the company Biosyntan (Berlin, Germany).
For the assay 50 nl of a 100fold concentrated solution of the test compound in DMSO was pipetted into a black low volume 384well microtiter plate (Greiner Bio-One, Frickenhausen, Germany), 2 μl of a solution of Bub1 in aqueous assay buffer [50 mM Tris/HCl pH 7.5, 10 mM magnesium chloride (MgCl2), 200 mM potassium chloride (KCl), 1.0 mM dithiothreitol (DTT), 0.1 mM sodium ortho-vanadate, 1% (v/v) glycerol, 0.01% (w/v) bovine serum albumine (BSA), 0.005% (v/v) Trition X-100 (Sigma), 1× Complete EDTA-free protease inhibitor mixture (Roche)] were added and the mixture was incubated for 15 min at 22° C. to allow pre-binding of the test compounds to the enzyme before the start of the kinase reaction. Then the kinase reaction was started by the addition of 3 μl of a solution of adenosine-tri-phosphate (ATP, 16.7 μM=>final conc. in the 5 μl assay volume is 10 μM) and substrate (1.67 μM=>final conc. in the 5 μl assay volume is 1 μM) in assay buffer and the resulting mixture was incubated for a reaction time of 60 min at 22° C. The concentration of Bub1 was adjusted depending of the activity of the enzyme lot and was chosen appropriate to have the assay in the linear range, typical concentrations were in the range of 200 ng/ml. The reaction was stopped by the addition of 5 μl of a solution of TR-FRET detection reagents (0.2 μM streptavidine-XL665 [Cisbio Bioassays, Codolet, France] and 1 nM anti-phosho-Serine antibody [Merck Millipore, cat. #35-001] and 0.4 nM LANCE EU-W1024 labeled anti-mouse IgG antibody [Perkin-Elmer, product no. AD0077, as an alternative a Terbium-cryptate-labeled anti-mouse IgG antibody from Cisbio Bioassays can be used]) in an aqueous EDTA-solution (50 mM EDTA, 0.2% (w/v) bovine serum albumin in 100 mM HEPES pH 7.5).
as §1, with “or Pherastar (both from BMG” for “(BMG”

Row | IC50 (CDK2/CycE) | IC50 [1] | SMILES
1 | > 20 µM | > 20 µM | Cc1nsc(Nc2cnc3ccccc3n2)c1C(=O)Nc1ccc(C(=O)N2CCCN(CC(F)(F)F)CC2)cc1 [Example 159]
2 | > 20 µM | 19 µM and > 20 µM | Cc1nsc(Nc2cnc3ccccc3n2)c1C(=O)Nc1ccc(C(=O)NCCN2CCCC(F)(F)C2)cc1 [Example 156, N-(4-{[2-(3,3-difluoropiperidin-1-yl)ethyl]carbamoyl}phenyl)-3-methyl-5-(quinoxalin-2-ylamino)-1,2-thiazole-4-carboxamide]
3 | > 20 µM | ≥ 20 µM | CCCCN1CC[C@@H](Oc2ccc(NC(=O)c3c(C)nsc3Nc3cnc(C(F)(F)F)cn3)cn2)[C@@H](F)C1 [Example 141, N-(6-{[(3S,4R)-1-butyl-3-fluoropiperidin-4-yl]oxy}pyridin-3-yl)-3-methyl-5-{[5-(trifluoromethyl)pyrazin-2-yl]amino}-1,2-thiazole-4-carboxamide]
4 | ≥ 20 µM | ≥ 20 µM | Cc1nsc(Nc2cnc(C(F)(F)F)cn2)c1C(=O)Nc1ccc(OCC2CCN(CC(F)(F)F)C2)nc1 (stereo not shown) [Example 123, 3-Methyl-N-(6-{[1-(2,2,2-trifluoroethyl)pyrrolidin-3-yl]methoxy}pyridin-3-yl)-5-{[5-(trifluoromethyl)pyrazin-2-yl]amino}-1,2-thiazole-4-carboxamide]
5 | > 20 µM | 14 µM | Cc1nsc(Nc2cnc(C(F)(F)F)cn2)c1C(=O)Nc1ccc(C(=O)NCCN2CCCC(F)(F)C2)cc1 [Example 153, N-(4-{[2-(3,3-difluoropiperidin-1-yl)ethyl]carbamoyl}phenyl)-3-methyl-5-{[5-(trifluoromethyl)pyrazin-2-yl]amino}-1,2-thiazole-4-carboxamide]
6 | > 20 µM | > 20 µM | Cc1nsc(Nc2ccc(C#N)cn2)c1C(=O)Nc1ccc(N[C@@H](C)C(=O)OC(C)(C)C)nc1 [Example 170, tert-butyl N-{5-[({5-[(5-cyanopyridin-2-yl)amino]-3-methyl-1,2-thiazol-4-yl}carbonyl)amino]pyridin-2-yl}alaninate]
7 | > 20 µM | > 20 µM and 18 µM | Cc1nsc(Nc2cnc3ccccc3n2)c1C(=O)Nc1ccc(NC2CC2)nc1 [Example 172, N-[6-(cyclopropylamino)pyridin-3-yl]-3-methyl-5-(quinoxalin-2-ylamino)-1,2-thiazole-4-carboxamide]
8 | ≥ 20 µM | ≥ 20 µM | Cc1nsc(Nc2cnc(C(F)(F)F)cn2)c1C(=O)Nc1ccc(C(=O)OC(C)(C)C)cc1 [Example 96, tert-Butyl 4-{[(3-methyl-5-{[5-(trifluoromethyl)pyrazin-2-yl]amino}-1,2-thiazol-4-yl)carbonyl]amino}benzoate]
9 | > 20 µM | > 20 µM | Cc1nsc(Nc2cnc(C(F)(F)F)cn2)c1C(=O)Nc1ccc(OC2CCN(CC(F)F)CC2)c(F)c1 [Example 164, N-(4-{[1-(2,2-difluoroethyl)piperidin-4-yl]oxy}-3-fluorophenyl)-3-methyl-5-{[5-(trifluoromethyl)pyrazin-2-yl]amino}-1,2-thiazole-4-carboxamide]
10 | – | ≥ 20 µM | Cc1nsc(Nc2cnc(C(F)(F)F)cn2)c1C(=O)Nc1ccc(OC[C@@H]2CCCN(CCC(F)(F)F)C2)nc1 [Example 422, 3-Methyl-5-{[5-(trifluoromethyl)pyrazin-2-yl]amino}-N-(6-{[(3R)-1-(3,3,3-trifluoropropyl)piperidin-3-yl]methoxy}pyridin-3-yl)-1,2-thiazole-4-carboxamide]
11 | > 20 µM | > 20 µM | Cc1nsc(Nc2cnc(C(F)(F)F)cn2)c1C(=O)Nc1ccc(OC[C@H]2CCN(CC(F)F)C2)nc1 [Example 132, N-(6-{[(3S)-1-(2,2-difluoroethyl)pyrrolidin-3-yl]methoxy}pyridin-3-yl)-3-methyl-5-{[5-(trifluoromethyl)pyrazin-2-yl]amino}-1,2-thiazole-4-carboxamide]
12 | ≥ 20 µM | ≥ 20 µM | CC(=O)N(C)CCOc1ccc(NC(=O)c2c(C)nsc2Nc2nc3c(C(F)(F)F)cccc3s2)cn1 [Example 112, N-(6-{2-[Acetyl(methyl)amino]-ethoxy}pyridin-3-yl)-3-methyl-5-{[4-(trifluoromethyl)-1,3-benzothiazol-2-yl]amino}-1,2-thiazole-4-carboxamide]
13 | > 20 µM | > 20 µM | COc1ccc(NC(=O)c2c(C)nsc2Nc2ccc(C#N)cn2)c(N2CCOCC2)n1 [Example 173, 5-[(5-cyanopyridin-2-yl)amino]-N-[6-methoxy-2-(morpholin-4-yl)pyridin-3-yl]-3-methyl-1,2-thiazole-4-carboxamide]
14 | – | ≥ 20 µM | Cc1nsc(Nc2cnc(C(F)(F)F)cn2)c1C(=O)Nc1ccc(OCC2CCN(CCF)C2)nc1 (stereo not shown) [Example 121, N-(6-{[1-(2-fluoroethyl)pyrrolidin-3-yl]methoxy}pyridin-3-yl)-3-methyl-5-{[5-(trifluoromethyl)pyrazin-2-yl]amino}-1,2-thiazole-4-carboxamide]
15 | – | ≥ 20 µM | Cc1nsc(Nc2cnc(C(F)(F)F)cn2)c1C(=O)Nc1ccc(O[C@@H]2CCN(CC(F)(F)F)C2)nc1 [Example 421, 3-Methyl-N-(6-{[(3R)-1-(2,2,2-trifluoroethyl)pyrrolidin-3-yl]oxy}pyridin-3-yl)-5-{[5-(trifluoromethyl)pyrazin-2-yl]amino}-1,2-thiazole-4-carboxamide]
16 | – | ≥ 20 µM | Cc1nsc(Nc2cnc(C(F)(F)F)cn2)c1C(=O)Nc1ccc(O[C@@H]2CCN(CCC(F)(F)F)C2)nc1 [Example 423, 3-Methyl-5-{[5-(trifluoromethyl)pyrazin-2-yl]amino}-N-(6-{[(3R)-1-(3,3,3-trifluoropropyl)pyrrolidin-3-yl]oxy}pyridin-3-yl)-1,2-thiazole-4-carboxamide]
